Source: patent US20250115571A1, “OXOPIPERAZINE DERIVATIVES” (Inthera Bioscience AG, priority 2017, published 2025)

Experiments:
[1] = system: patient-derived castration-resistant prostate tumor cells (model #PR6511); assay: Castration resistant prostate cancer patient-derived xenograft (CRPC PDX); format: in vivo, mouse; conditions: for CR (complete regression) = number of mice / PR (partial regression) = number of mice / TFS (Tumor Free Survival) = number of complete regressions recorded up to Group Day End: groups of eight mice
Procedure: NSG NOD.Cg-PrkdcscidIj2rgtm1Wjl/SzJ mice (6-8 weeks of age) were injected with patient-derived castration-resistant prostate tumor cells (model #PR6511, Crown Bioscience UK Ltd Hillcrest, Osgathorpe Leicestershire, UK). The cells were inoculated subcutaneously into the left flank of 40 male NSG mice. When tumors reached a mean volume of approximately 100 mm^3 (i.e. 100 mm^3+/−54 mm^3, FIG. 3), mice were randomly assigned to five treatment groups of each eight mice (TABLE 9). Body weights were measured three times weekly prior to the initiation of dosing and daily thereafter. Tumor burden was assessed by caliper measurement three times weekly. Dosing breaks were applied when tolerability issues arose (body weight loss>10). Upon completion of the scheduled dosing phase at day 57, tumor outgrowth was monitored for groups 3, 4 and […] up to study day 77. Groups 1 and 2 were terminated on study day 57. Results of the experiment are shown in TABLES 10 and 11; and FIGS. 3 and 4. The experiment was performed in the Crown Bioscience Ltd. testing facility (Crown Bioscience UK Ltd Hillcrest, Dodgeford Lane, Osgathorpe Leicestershire LE12 9TE, UK).

[2] = system: hormone-refractory DU-145 human prostate cancer cells; assay: Cell-derived xenograft mouse model for prostate cancer (DU-145 CDX); format: in vivo; conditions: p.o. QD × 4 weeks; for T/C (tumor-to-control ratio, volume/volume): day 35
Procedure: Male BALB/c nude mice (7-9 weeks of age) were injected with hormone-refractory DU-145 human prostate cancer cells. The cells were inoculated subcutaneously into the left flank of 48 mice. When tumors reached a mean volume of approximately 105 mm^3, mice were randomly assigned to eight treatment groups of each six mice (TABLE 12). Body weights were measured three times weekly prior to the initiation of dosing and daily thereafter. Tumor burden was assessed by caliper measurement three times weekly. Dosing breaks were applied when tolerability issues arose (body weight loss>10%). The study was terminated 4 weeks post first dosing. The experiment was performed in the Crown Bioscience Ltd. (Beijing) testing facility (Ground Floor, Light Muller Building, Changping Sector of Zhongguancun Scientific Park, No. 21 Huoju Road, Changping District, Beijing, CHIN).

A549 = assay: 9-day colony survival assay (CFA); format: cell-based; conditions: Homo sapiens, 216 h, A549 (lung), read-out: GI50 (50% growth inhibition)
[3] = system: HCT116 human colon cancer cells; assay: Cell-derived xenograft mouse model for colorectal cancer (HCT116 CDX); format: in vivo; conditions: for T/C (tumor-to-control ratio, volume/volume): day 37
Procedure: Female BALB/c nude mice (8-9 weeks of age) were injected with HCT116 human colon cancer cells. The cells were inoculated subcutaneously into the left flank of 48 mice. When tumors reached a mean volume of approximately 100 mm^3, mice were randomly assigned to eight treatment groups of each six mice (TABLE 14). Body weights were measured three times weekly prior to the initiation of dosing and daily thereafter. Tumor burden was assessed by caliper measurement twice weekly. Dosing breaks were applied when tolerability issues arose (body weight loss>10%). The study was terminated four weeks post first dosing. The experiment was performed in the Crown Bioscience Ltd. (Beijing) testing facility (Ground Floor, Light Muller Building, Changping Sector of Zhongguancun Scientific Park, No. 21 Huoju Road, Changping District, Beijing, CHN).

MRC-5 = assay: 5-day cell proliferation assay (CTG); format: cell-based; conditions: Homo sapiens, MRC5, 120 h, MRC-5, Lung
Procedure: (§1) For screening using a proliferation assay, the cells used were cultured at 37° C. with 5% CO2, except for those being cultured with L-15 medium (37° C. and 100% air, TABLE 7). Compound stock solutions (10 mM) were made in sterile water, aliquoted and stored at room temperature. Cisplatin was used as reference Control. Plastic consumables, culture media and supplements were purchased from well-known suppliers (TABLE 8).
(§2) Cell seeding (day −1). When necessary, cells were trypsinized using standard methods (see e.g. example 01). Cells were collected and resuspended in 5-6 mL of appropriate culture medium, counted and diluted to the needed density. Fifty-four μl (microliter) cells were seeded per well in a 384-well plate. Extra four wells per cell line were seeded on an additional plate for Day 0 reading (baseline cell density). Cells were incubated at 37° C. overnight.
(§3) Compound treatment and Day 0 reading (day 0). Tenfold final concentration of test compounds and Cisplatin were prepared in cell culture media (work dilutions). Six μl of work dilution solutions were dispensed into the corresponding wells in 384-well plates to bring the total volume up to 60 μl. Conditions were tested in triplicate. The plates were then incubated at 37° C. for five days. For the day 0 reading, 30 μl of CTG and 6 μl cell culture medium were added to the day 0 plates, contents mixed for 2 min on a plate shaker, and the plates incubated for 10 min at room temperature in the dark. Luminescence was recorded on an EnVision Multi Label Reader (2104-0010A, PerkinElmer, USA).
(§4) Endpoint CTG reading (day 5). The amounts of cells in the plates was determined by endpoint CTG-test. Thirty μl of CTG were added to the 60 μl of cell culture per well, contents mixed for 2 min on a plate shaker, and the plates incubated for 10 min at room temperature in the dark. Luminescence was recorded on an EnVision Multi Label Reader.
(§5) Data analysis. Fifty percent growth inhibition concentrations (GI50) were calculated based on percentage of control data (untreated cells) from each cell line (TABLE 5 (this example) and TABLE 6). Curves were fitted using a nonlinear regression model with a sigmoidal dose response. Examples of obtained curves are depicted in FIG. 2A-2F.

SW620 = assay: 5-day cell proliferation assay (CTG); format: cell-based; conditions: Homo sapiens, SW-620, 120 h, SW620, Colorectal
Procedure: as §1, §2, §3, §4, §5

HCT116 = assay: 5-day cell proliferation assay (CTG); format: cell-based; conditions: Homo sapiens, HCT-116, 120 h, HCT116, Colorectal
Procedure: as §1, §2, §3, §4, §5

SNU-16 = assay: 5-day cell proliferation assay (CTG); format: cell-based; conditions: Homo sapiens, 120 h, SNU-16, Stomach/Gastric
Procedure: as §1, §2, §3, §4, §5

HS-5 = assay: 5-day cell proliferation assay (CTG); format: cell-based; conditions: Homo sapiens, HS5, 120 h; HS-5, 5-day cell proliferation
Procedure: as §1, §2, §3, §4, §5

RPWE-1 = assay: 5-day cell proliferation assay (CTG); format: cell-based; conditions: Homo sapiens, 120 h, RPWE-1 (Table 6: RWPE-1), Prostate
Procedure: as §1, §2, §3, §4, §5

HT-29 = assay: 5-day cell proliferation assay (CTG); format: cell-based; conditions: Homo sapiens, 120 h, HT-29, Colorectal
Procedure: as §1, §2, §3, §4, §5

[4] = 6 mg/kg p.o. QD, n.s. = not significant
[5] = p.o. QD, 10 mg/kg, 3 mg/kg from day 51 on

| Structure (SMILES) | TWO-WAY ANOVA p (tumor size at the end of the study) vs. Compound 258 10 mg/kg [1, 4] | TWO-WAY ANOVA p (tumor size at the end of the study) vs. Enzalutamide ([1]; 6 mg/kg, p.o. QD) | TWO-WAY ANOVA p (tumor size at the end of the study) vs. Vehicle ([1]; 6 mg/kg, p.o. QD) | CR (complete regression) = number of mice ([1]; p.o. QD, 6 mg/kg) | PR (partial regression) = number of mice ([1]; p.o. QD, 6 mg/kg) | TFS (Tumor Free Survival) = number of complete regressions recorded up to Group Day End ([1]; p.o. QD, 6 mg/kg) | Tumor Size day 35 (Mean ± SEM) ([2]; 3 mg/kg) | T/C (tumor-to-control ratio, volume/volume) ([2]; 3 mg/kg) | GI50 (A549) | Tumor Size day 37 (Mean ± SEM) ([3]; 3 mg/kg, p.o. QD) | Tumor Size day 37 (Mean ± SEM) ([3]; 6 mg/kg, p.o. QD) | p vs. Group-2 (Avastin, 10 mg/kg, BIW) ([3]; 6 mg/kg, p.o. QD) | T/C (tumor-to-control ratio, volume/volume) ([3]; 6 mg/kg, p.o. QD) | GI50 (MRC-5) | GI50 (SW620) | GI50 (HCT116) | GI50 (SNU-16) | GI50 (HS-5) | GI50 (RPWE-1) | GI50 (HT-29) | further results |
| --- | --- | --- | --- | --- | --- | --- | --- | --- | --- | --- | --- | --- | --- | --- | --- | --- | --- | --- | --- | --- | --- |
| CC(C)C[C@@H]1NCCN([C@@H](CC(C)C)C(=O)N2CCC3(C[C@@H]2C)OCC(CN2CCCC2)CO3)C1=O (stereo partly drawn) [Compound 258, (3S)-1-[(2S)-4-methyl-1-oxo-1-[(3s,6s,8S)-8-methyl-3-(pyrrolidin-1-ylmethyl)-1,5-dioxa-9-azaspiro[5.5]undec-an-9-yl]pentan-2-yl]-3-(2-methylpropyl)piper-azin-2-one (^≠), isomer Z] | n.s. | p < 0.0001 | p < 0.0001 | 3 | 2 | 3 | 105 ± 25 mm^3 | 15.2% | 5 nM | 436.2 ± 58.9 mm^3 | 253.2 ± 39.2 mm^3 | Group-2 vs. Group-4, p = 0.001; | 21.3% | 12 nM | 4 nM | 5 nM | 13 nM | 5 nM | 4 nM | 4 nM | TWO-WAY ANOVA p (tumor size at the end of the study) vs. Enzalutamide ([1]; 10 mg/kg p.o. QD): p < 0.0001; TWO-WAY ANOVA p (tumor size at the end of the study) vs. Vehicle ([1]; 10 mg/kg p.o. QD): p < 0.0001; CR (complete regression) = number of mice [1, 5]: 4; PR (partial regression) = number of mice [1, 5]: 2; TFS (Tumor Free Survival) = number of complete regressions recorded up to Group Day End [1, 5]: 3; Tumor Size day 35 (Mean ± SEM) ([2]; 1 mg/kg): 378 ± 27 mm^3; T/C (tumor-to-control ratio, volume/volume) ([2]; 1 mg/kg): 54.5%; Tumor Size day 35 (Mean ± SEM) ([2]; 6 mg/kg): 32 ± 2 mm^3; T/C (tumor-to-control ratio, volume/volume) ([2]; 6 mg/kg): 4.6%; Tumor Size day 35 (Mean ± SEM) ([2]; 10 mg/kg): 47 ± 4 mm^3; T/C (tumor-to-control ratio, volume/volume) ([2]; 10 mg/kg): 6.8%; p vs. Group-2 (Avastin, 10 mg/kg, BIW) ([3]; 3 mg/kg, p.o. QD): Group-2 vs. Group-5, p = 0.028;; T/C (tumor-to-control ratio, volume/volume) ([3]; 3 mg/kg, p.o. QD): 36.7%; Tumor Size day 37 (Mean ± SEM) ([3]; 20 mg/kg, p.o. BIW): 696.8 ± 93.7 mm^3; p vs. Group-2 (Avastin, 10 mg/kg, BIW) ([3]; 20 mg/kg, p.o. BIW): Group-2 vs. Group-3, p = 0.865;; T/C (tumor-to-control ratio, volume/volume) ([3]; 20 mg/kg, p.o. BIW): 58.7% |
| CC(C)C[C@@H]1NCCN([C@@H](CC(C)C)C(=O)N2CCC3(C[C@@H]2C)OCC(CN2CCC4(CC2)CC4)CO3)C1=O (stereo partly drawn) [Compound 279, (3S)-1-[(2S)-4-methyl-1-oxo-1-[(3s,6s,8S)-3-{6-azaspiro[2.5]octan-6-ylmethyl}-8-methyl-1,5-dioxa-9-azaspiro[5.5]undec-an-9-yl]pentan-2-yl]-3-(2-methylpropyl)piper-azin-2-one (^≠), isomer Z] |  |  |  |  |  |  | 516 ± 59 mm^3 | 74.5% | 5 nM |  | 1064.0 ± 141.1 mm^3 | Group-2 vs. Group-6, p = 0.070; | 89.6% | 10 nM | 2 nM | 3 nM | 10 nM | 3 nM | 3 nM | 4 nM |  |
| CC(C)C[C@@H]1NCCN([C@@H](CC(C)C)C(=O)N2CCC3(C[C@@H]2C)OCC(CN2CCC2)CO3)C1=O (stereo partly drawn) [Compound 284, (3S)-1-[(2S)-4-methyl-1-oxo-1-[(3s,6s,8S)-3-(azetidin-1-ylmethyl)-8-methyl-1,5-dioxa-9-azaspiro[5.5]undec-an-9-yl]pentan-2-yl]-3-(2-methylpropyl)piper-azin-2-one (^≠), isomer Z] | n.s. | p < 0.0001 | p < 0.0001 | 3 | 2 | 3 | 347 ± 48 mm^3 | 50.1% | 10 nM | 827.4 ± 125.7 mm^3 | 942.0 ± 114.9 mm^3 | Group-2 vs. Group-7, p = 0.165; | 79.3% | 25 nM | 7 nM | 9 nM | 22 nM | 10 nM | 10 nM | 7 nM | TWO-WAY ANOVA p (tumor size at the end of the study) vs. Compound 258 6 mg/kg [1, 4]: n.s.; p vs. Group-2 (Avastin, 10 mg/kg, BIW) ([3]; 3 mg/kg, p.o. QD): Group-2 vs. Group-8, p = 0.509;; T/C (tumor-to-control ratio, volume/volume) ([3]; 3 mg/kg, p.o. QD): 69.7% |
